# Entries after “also recorded” stand apart in the source; their conditions may differ.
# Key:
# serum cholesterol = experiment: Serum cholesterol levels in diet/ezetimibe SCID mouse cohorts (Infinity colorimetric assay); format: in vivo, SCID mice; conditions: ezetimibe 30 mg/kg/d, 4 weeks, both LFNC and HFHC diet groups, drug F=23.48, p<0.001
# Method: Mice and Tumor Xenografts. 5 week old SCID mice were obtained from the Massachusetts General Hospital and were fed a low fat/no cholesterol diet (LFNC) (Research Diets, New Brunswick, N.J. diet # D12102) for two weeks, blood was drawn from the saphenous tail vein and the serum cholesterol concentration was determined using the Infinity Cholesterol Liquid Stable Reagent (Thermo Electron Corp.). For intact (non-castrated) mice, the animals were divided into the high fat/high cholesterol diet (HFHC) (Research Diets, diet # D12108) and LFNC groups with and without ezetimibe (30 mg/kg/day; Schering-Plough, New Brunswick, N.J.) and the mice continued on these diets for four weeks. For castrated mice, the mice were divided into 4 groups, 2 groups were castrated, and 2 groups were left intact. […] Tumors were measured daily from the initiation of the first palpable tumors and the mice sacrificed prior to reaching the maximum tumor burden (13-23 days post implantation). Terminal bleeds were taken (Cardiac puncture) for serology (triglyceride, bilirubin and other liver function tests were performed in the Dept. of Laboratory Medicine, Children's Hospital Boston, androgen levels were determined by a testosterone EIA, Diagnostic Systems Laboratories, Webster, Tex.). Tumors were removed, measured, weighed and either placed in OCT solution (Tissue-Tek, Torrance, Calif.) or snap frozen. […]
# LNCaP xenograft tumors [1] = experiment: Tumor cell proliferation (Ki67 staining); format: in vivo, SCID mice
# Method: (§1) Immunofluorescence. Tumor samples frozen in OCT were sectioned (3-20 μm thick), mounted on Superfrost slides (ThermoFisher Scientific, Waltham, Mass.), and air-dried for 30 min. Sections were then fixed using cold acetone (5 min), followed by 1:1 acetone:chloroform (5 min), and then acetone (5 min) or by using 4% PFA at room temp (30 min) followed by 0.025% PBS/Triton X-100 (5 min) to permeabilize the cells. Sections were washed with cold PBS 3× for 5 min each and were incubated in a protein blocking solution of PBS/Tween (0.1%) with 5% bovine serum albumin (BSA; Sigma) at room temp (30 min) and were then washed in cold PBS 3× for 5 min each. The appropriate primary antibodies diluted 1:200-1:1000 in blocking solution were incubated with the sections overnight at 4° C. Sections were washed 3× for 5 min in cold PBS, and incubated in blocking solution (10 min). The sections were then incubated with the appropriate fluorescent secondary reporter antibodies diluted 1:500-1:5000 in blocking solution at room temp (30 min) followed by washing 3× in PBS. Nuclei were counter-stained with DAPI. Double staining of CD31 with TSP-1 and CD31 with SMA were performed sequentially as described above. Blood vessel analysis was done using IPLab software (BD Biosciences Bioimaging, Rockville, Md.) as previously described (Bielenberg, D. R., Hida, Y., Shimizu, A., Kaipainen, A., Kreuter, M., Kim, C. C., and Klagsbrun, M. 2004. Semaphorin 3F, a chemorepulsant for endothelial cells, induces a poorly vascularized, encapsulated, nonmetastatic tumor phenotype. J Clin Invest 114:1260-1271). Thombospndin-1 (TSP-1) analysis was done using the outline spline in AxioVision 4.0 software. Ki67 positive cells and nuclei were quantified using AxioVision 4.0 software.
# LNCaP xenograft tumors [2] = experiment: Tumor membrane cholesterol analysis; format: in vivo, SCID mice; conditions: ezetimibe main effect p<0.0001, n=9/group
# Method: Tumor cholesterol analysis. Tumors were finely minced in phosphate buffered saline (PBS) on ice and the level of cholesterol was determined as described previously (Boucher, K., Siegel, C. S., Sharma, P., Hauschka, P. V., and Solomon, K. R. 2006. HMG-CoA reductase inhibitors induce apoptosis in pericytes. Microvasc Res 71:91-102).
# LNCaP xenograft tumors [3] = experiment: Pericyte coverage of microvessels (SMA staining); format: in vivo, SCID mice; conditions: ezetimibe groups, p<0.0001
# Method: as §1, with “Blood vessel analysis was done using IPLab software (BD Biosciences Bioimaging, Rockville, Md.) as previously described (Bielenberg, D. R., Hida, Y., Shimizu, A., Kaipainen, A., Kreuter, M., Kim, C. C., and Klagsbrun, M. 2004. Semaphorin 3F, a chemorepulsant for endothelial cells, induces a poorly vascularized, encapsulated, nonmetastatic tumor phenotype. J Clin Invest 114:1260-1271). Thombospndin-1 (TSP-1) analysis was done using the outline spline in AxioVision 4.0 software.” left out
# [4] = Serology (triglyceride, liver function tests) and feeding observation; format: in vivo, SCID mice
# Method: (§2) Mice and Tumor Xenografts. 5 week old SCID mice were obtained from the Massachusetts General Hospital and were fed a low fat/no cholesterol diet (LFNC) (Research Diets, New Brunswick, N.J. diet # D12102) for two weeks, blood was drawn from the saphenous tail vein and the serum cholesterol concentration was determined using the Infinity Cholesterol Liquid Stable Reagent (Thermo Electron Corp.). For intact (non-castrated) mice, the animals were divided into the high fat/high cholesterol diet (HFHC) (Research Diets, diet # D12108) and LFNC groups with and without ezetimibe (30 mg/kg/day; Schering-Plough, New Brunswick, N.J.) and the mice continued on these diets for four weeks. For castrated mice, the mice were divided into 4 groups, 2 groups were castrated, and 2 groups were left intact. The mice were fed either the LFNC, or a low fat/high cholesterol diet (LFHC) (Research Diets, diet #D12104) for 80 days. Xenografts were initiated by injecting LNCaP (2×10^6 per site) with 1:1 volume of Matrigel (BD BioSciences, San Jose, Calif.) into the 4 dorsal quadrants of each mouse. In order to eliminate any injection bias, the mice were randomized prior to implantation and the implanter was blinded to which group each mouse was assigned. All animal procedures were done in compliance with Children's Hospital Boston's animal care and use policies. Tumors were measured daily from the initiation of the first palpable tumors and the mice sacrificed prior to reaching the maximum tumor burden (13-23 days post implantation). Terminal bleeds were taken (Cardiac puncture) for serology (triglyceride, bilirubin and other liver function tests were performed in the Dept. of Laboratory Medicine, Children's Hospital Boston, androgen levels were determined by a testosterone EIA, Diagnostic Systems Laboratories, Webster, Tex.). Tumors were removed, measured, weighed and either placed in OCT solution (Tissue-Tek, Torrance, Calif.) or snap frozen.
# LNCaP xenograft tumors [5] = experiment: Fibroblast staining of tumor sections; format: in vivo, SCID mice; conditions: HFHC condition, p=0.03, n=55/group
# Method: as §1, with “Blood vessel analysis was done using IPLab software (BD Biosciences Bioimaging, Rockville, Md.) as previously described (Bielenberg, D. R., Hida, Y., Shimizu, A., Kaipainen, A., Kreuter, M., Kim, C. C., and Klagsbrun, M. 2004. Semaphorin 3F, a chemorepulsant for endothelial cells, induces a poorly vascularized, encapsulated, nonmetastatic tumor phenotype. J Clin Invest 114:1260-1271). Thombospndin-1 (TSP-1) analysis was done using the outline spline in AxioVision 4.0 software.” left out
# LNCaP xenograft tumors [6] = experiment: Microvessel density (MVD), CD31 analysis; format: in vivo, SCID mice; conditions: ezetimibe p=0.013, larger effects with HFHC (p=0.01)
# Method: as §1, with “Blood vessel analysis was done using IPLab software (BD Biosciences Bioimaging, Rockville, Md.) as previously described (Bielenberg, D. R., Hida, Y., Shimizu, A., Kaipainen, A., Kreuter, M., Kim, C. C., and Klagsbrun, M. 2004. Semaphorin 3F, a chemorepulsant for endothelial cells, induces a poorly vascularized, encapsulated, nonmetastatic tumor phenotype. J Clin Invest 114:1260-1271). Thombospndin-1 (TSP-1) analysis was done using the outline spline in AxioVision 4.0 software.” left out
# LNCaP xenograft tumors [7] = experiment: Tumor cell apoptosis (TUNEL staining); format: in vivo, SCID mice; conditions: ezetimibe main effect p<0.0001, no synergy with diet (p=0.85)
# Method: Apoptosis. Percentage of apoptotic cells in tumor sections was determined by TUNEL assay using the In Situ Cell Death Detection Kit (Roche Diagnostics Corp. Indianapolis, Ind.). Briefly, frozen tumor sections were fixed in 4% paraformaldehyde (PFA), permeabilized and the DNA stained with fluorescein following the manufacturer's instructions. Nuclei were counterstained with DAPI (Vector Labs, Burlingame, Calif.). Images were captured using a Zeiss microscope and the positive cells and nuclei were counted using Axiovision software 4.0.
# thrombospondin-1 (TSP-1) = experiment: Thrombospondin-1 (TSP-1) levels in tumor sections; format: in vivo, SCID mice; conditions: ezetimibe p<0.0001
# Method: as §1, with “Blood vessel analysis was done using IPLab software (BD Biosciences Bioimaging, Rockville, Md.) as previously described (Bielenberg, D. R., Hida, Y., Shimizu, A., Kaipainen, A., Kreuter, M., Kim, C. C., and Klagsbrun, M. 2004. Semaphorin 3F, a chemorepulsant for endothelial cells, induces a poorly vascularized, encapsulated, nonmetastatic tumor phenotype. J Clin Invest 114:1260-1271). Thombospndin-1 (TSP-1) analysis was done using the outline spline in AxioVision 4.0 software.” left out
# [8] = tested on: LNCaP human prostate tumor xenografts; experiment: Growth of implanted LNCaP prostate tumor xenografts (volume, wet weight, take); format: in vivo, SCID mice
# Method: as §2
# Following alteration of cholesterol levels, the mice from Example 3 were injected subcutaneously with 2×10^6 LNCaP cells in their flanks (4 tumors/mouse). Regimens were continued following implantation, and the experiment continued for 13 days following the initial appearance of tumors. Tumor volume was measured daily (FIG. 2B). […] The overall effect of diet and ezetimibe was independent and additive, not synergistic. […] Tumor take was >95% in all groups and no significant differences in tumor take were observed.
# VEGF or bFGF = VEGF or bFGF expression in the cohorts; format: in vivo, SCID mice; conditions: between the diet/drug cohorts, data not shown
# LNCaP xenograft tumors [9] = experiment: Tumor hemoglobin quantification; format: in vivo, SCID mice; conditions: n=20
# Method: Hemoglobin Assay. Tumors were finely minced in 1 ml of fresh PBS on ice. The minced tissue suspensions were centrifuged at 10,000 g at 4° C. (2 min) and the supernatant was removed. The optical density (OD) of the clarified supernatants was read at 650 nm (background) and 530 nm (hemoglobin) using a spectrophotometer (Boyle, M. D., and Ohanian, S. H. 1980. Evidence for the influence of the initial complement components on the assembly and activity of the membrane attack complex. J Immunol 124:2824-2827; Gee, A. P., Boyle, M. D., and Borsos, T. 1980. Distinction between C8-mediated and C8/C9-mediated hemolysis on the basis of independent 86Rb and hemoglobin release. J Immunol 124:1905-1910).
# LNCaP xenograft tumors [10] = experiment: MVD, caveolin-1 analysis (immunoblotting and immunofluorescence); format: in vivo, SCID mice
# Method: Immunofluorescence. Tumor samples frozen in OCT were sectioned (3-20 μm thick), mounted on Superfrost slides (ThermoFisher Scientific, Waltham, Mass.), and air-dried for 30 min. Sections were then fixed using cold acetone (5 min), followed by 1:1 acetone:chloroform (5 min), and then acetone (5 min) or by using 4% PFA at room temp (30 min) followed by 0.025% PBS/Triton X-100 (5 min) to permeabilize the cells. Sections were washed with cold PBS 3× for 5 min each and were incubated in a protein blocking solution of PBS/Tween (0.1%) with 5% bovine serum albumin (BSA; Sigma) at room temp (30 min) and were then washed in cold PBS 3× for 5 min each. The appropriate primary antibodies diluted 1:200-1:1000 in blocking solution were incubated with the sections overnight at 4° C. Sections were washed 3× for 5 min in cold PBS, and incubated in blocking solution (10 min). […] Ki67 positive cells and nuclei were quantified using AxioVision 4.0 software.
# Lysates and Immunoblotting. […] Protein concentrations were determined by microBCA (Pierce/Thermo Scientific) and equal amounts of the lysates were subjected to SDS-PAGE and immunoblotting as described previously (Zhuang, L., Kim, J., Adam, R. M.-, Solomon, K. R., and Freeman, M. R. 2005. Cholesterol targeting alters lipid raft composition and cell survival in prostate cancer cells and xenografts. J Clin Invest 115:959-968).
# [11] = literature (Jurado 2004; Knopp 2003); cited from earlier work
structure (smiles),measurement,setting,value
O=C1[C@H](CC[C@H](O)c2ccc(F)cc2)[C@@H](c2ccc(O)cc2)N1c1ccc(F)cc1 [ezetimibe],serum cholesterol,serum cholesterol,significant effects
same,serum cholesterol,serum cholesterol; listed as Ezetimibe,significant reductions
same,relative level of Ki67 staining,LNCaP xenograft tumors [1]; HFHC diet w/ezetimibe (HFHC alone 41.16),30.32 (95% CI; 26.96-33.68)
same,relative level of Ki67 staining,LNCaP xenograft tumors [1]; LFNC diet w/ezetimibe (LFNC alone 28.78),25.57 (95% CI; 22.21-28.93)
same,"tumor cell proliferation (Ki67), effect in words","LNCaP xenograft tumors [1]; ezetimibe by diet interaction p=0.027, magnitude depends on the diet",significant effect on lowering proliferation
same,tumor cholesterol levels (membranes),LNCaP xenograft tumors [2],highly significant main effects; also recorded: independently affected
same,pericyte coverage of vessels (relative level of SMA staining),LNCaP xenograft tumors [3],highly significant main effects; also recorded: dramatically increased
same,"liver function (AST, ALP, bilirubin etc)","[4]; any mouse, all groups, data not shown",no liver dysfunction
same,serum triglyceride levels,"[4]; ezetimibe cohorts, data not shown",no significant reduction; also recorded: nor were triglyceride levels significantly reduced
same,feeding behavior,"[4]; observation, calorie intake 21.18 Kcal/d",did not alter feeding behavior
same,relative level of fibroblast staining,LNCaP xenograft tumors [5],statistically significant ezetimibe effect
same,microvessel density (relative level of CD31 staining),LNCaP xenograft tumors [6],highly significant main effect; also recorded: significantly suppressed
same,tumor cell apoptosis (relative level of TUNEL staining),LNCaP xenograft tumors [7],highly significant main effects; also recorded: significantly increased
same,TSP-1 levels in tumors (relative level of TSP-1 staining),thrombospondin-1 (TSP-1),highly significant main effects; also recorded: enhanced
same,tumor wet weight at sacrifice,"[8]; LFNC diet with drug, p=0.021 vs HFHC (0.88±0.71 g)",0.63 ± 0.55 g
same,tumor wet weight at sacrifice,"[8]; LFNC+Z group, p=0.021 vs HFHC (0.88±0.71)",0.63±0.55 average grams/tumor site
same,tumor take,"[8]; all diet/drug groups, no significant differences",> 95%
same,tumor growth rates (tumor volume),"[8]; ezetimibe 30 mg/kg/day added to diet, 13 days from first appearance of tumors, p=0.035",Significantly reduced
same,VEGF or bFGF expression,VEGF or bFGF,no differences
same,relative hemoglobin/mg tumor tissue,LNCaP xenograft tumors [9]; HFHC+Z vs HFHC,statistical significance
same,relative hemoglobin/mg tumor tissue,LNCaP xenograft tumors [9]; LFNC vs LFNC+Z,not statistically different
same,"average caveolin-1 signal, immunoblotting","LNCaP xenograft tumors [10]; both diet conditions, p=0.027, n=6/group",significant drug effect in lowering caveolin
same,"relative level of caveolin-1 staining, immunofluorescence","LNCaP xenograft tumors [10]; ezetimibe p<0.0001, n=43/group",highly significant main effects
same,triglyceride levels in humans,[11],modest effect

# — patent publication US20090208448A1, “Inhibition of angiogenesis” (priority 2008, published 2009)
